Structures can show the parent of a compound that is named as a salt. Where two headings read alike, the source gives them in different places.
Columns and labels:
[1] = target: T1, cloned human P2Y1 receptors (Homo sapiens (Human), UniProt P47900); test: Binding Assay A: membrane binding assay, [33P] 2MeS-ADP
Source text: A membrane binding assay was used to identify inhibitors of [^33P] […] The cDNA clone for human P2Y1 was obtained from Incyte Pharmaceuticals and its sequence confirmed by established techniques (for a compendium of techniques used see Ausubel, F. et al. Current Protocols in Molecular Biology, John Wiley and Sons, NY, N.Y. (1995)). The essential coding sequences were subcloned into pCDNA 3.1 (Invitrogen) to produce a P2Y1 expression construct. This construct was then transfected into the human embryonic kidney cell line HEK-293 and stable transfectants selected in GENETICIN® (G418 sulfate; Life Technologies). […] Membranes were prepared by growing HEK293 #49 in 150 mm dishes in DMEM/10% FBS in the presence of 1 mg/ml G418 until cells were 80-90% confluent. Plates were then washed with cold (4° C.) D-PBS twice and cells harvested by scraping into 10 mL D-PBS. Cells were pelleted by centrifugation (1,000 g, 10 min, 4° C.) and the resulting pellet resuspended in Lysis Buffer (10 mM Tris (7.4), 5 mM MgCl2 containing Complete protease inhibitor cocktail (Roche Cat #1873580) as recommended by the manufacturer). The suspension was then homogenized in a Dounce homogenizer (10-15 strokes; B pestle, on ice) and the homogenate spun at 1,000 g, 4° C., 5 min to pellet large debris. The supernatant was centrifuged at 150,000 g, 4° C., for 1 hour and the resulting membrane pellet resuspended in 0.5-1 mL of Buffer B (15 mM HEPES (7.4), 145 mM NaCl, 0.1 mM MgCl2, 5 mM EDTA, 5 mM KCl) and stored at −70° C. until used.
Binding reactions were performed in WGA FLASHPLATE®s (PerkinElmer Life Sciences, Cat # SMP105A) in a volume of 200 μL containing ˜45 fmol of P2Y1 receptor (5 μg of total protein), 0.5 nM [^33P] […] Reactions were allowed to proceed to completion at room temperature for 1 hour and then the aqueous solution aspirated. Plates were sealed and the residual [^33P] bound to the plate determined by scintillation counting.

[2] = tested on: human platelet rich plasma (PRP); test: ADP induced platelet aggregation assay
[3] = target: T1, cloned human P2Y1 receptors; test: Binding Assay B: Scintillation Proximity Assay (SPA) for P2Y1 binding; settings: SPA, [33P] 2MeS-ADP displacement; read-out: P2Y1 Ki (nM) using binding assay B
How it was run: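 Scintillation proximity readout of 0.3 nM [^33P] tracer displacement from receptor membranes (~15 fmol receptor, 1.7 μg protein). Binding ran 1 h at room temperature to completion; plates were then centrifuged and aqueous phase aspirated before counting.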

[4] = values marked *, WGA FlashPlate, [33P] 2MeS-ADP displacement, read-out: P2Y1 Ki (nM) *Using binding assay A
[5] = Homo sapiens, Platelet, read-out: PA IC50 (μM) @ 10 μM ADP, platelet aggregation induced by 10 μM ADP, human PRP

T1 sequence (P47900 whole entry): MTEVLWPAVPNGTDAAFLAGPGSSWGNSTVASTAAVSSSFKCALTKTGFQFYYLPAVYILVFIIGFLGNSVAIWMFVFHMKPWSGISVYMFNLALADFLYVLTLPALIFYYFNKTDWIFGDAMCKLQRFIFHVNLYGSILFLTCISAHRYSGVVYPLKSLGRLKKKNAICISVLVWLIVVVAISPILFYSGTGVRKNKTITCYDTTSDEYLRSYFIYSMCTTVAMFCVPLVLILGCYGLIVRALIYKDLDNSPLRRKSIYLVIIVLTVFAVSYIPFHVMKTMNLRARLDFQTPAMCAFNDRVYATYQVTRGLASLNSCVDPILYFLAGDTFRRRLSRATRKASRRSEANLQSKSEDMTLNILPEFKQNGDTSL

Structure (SMILES) | Ki [1, 4] | IC50 [2, 5] | Ki [1] | IC50 ([2]; read-out: PA IC50 (μM) @ 10 μM ADP, platelet aggregation induced by 10 μM ADP, human PRP) | Ki [3]
CC(C)(C)CN1CCC2(CC1)CN(c1ccccc1NC(=O)Nc1nc3ccc(Cl)cc3s1)c1c(O)cccc12 [Example 75, 1-(6-Chlorobenzo[d]thiazol-2-yl)-3-(2-(7-hydroxy-1′-neopentylspiro [indoline-3,4′-piperidine]-1-yl)phenyl)urea] | 7.5 nM | 0.4 µM |  |  | 
CC(C)CN1CCC2(CC1)CN(c1ccccc1NC(=O)Nc1ccc(OC(F)(F)F)cc1)c1ccccc12 [Comparator 2, reference compound] | 20.2 nM | 8.8 µM |  |  | 
CC(C)(C)CN1CCC2(CC1)CN(c1ccccc1NC(=O)Nc1nc3ccc(Cl)cc3s1)c1c(O)ccc(F)c12 [Example 33, 1-(2-(7-Hydroxy-4-fluoro-1′-neopentylspiro[indoline-3,4′-piperidine]-1-yl)phenyl)-3-(6-chlorobenzo[d]thiazol-2-yl)urea] | 3.7 nM | 0.4 µM |  |  | 
CC(C)(C)CN1CCC2(CC1)CN(c1ccccc1NC(=O)Nc1nc3ccc(Cl)nc3s1)c1c(O)ccc(Cl)c12 [Example 167, 1-(2-(4-Chloro-7-hydroxy-1′-neopentylspiro[indoline-3,4′-piperidine]-1-yl)phenyl)-3-(5-chlorothiazolo[5,4-b]pyridin-2-yl)urea, methanesulfonic acid salt] |  |  | 3.3 nM | 0.5 µM | 
CC(C)c1nsc(NC(=O)Nc2ccccc2N2CC3(CCN(CC(C)(C)C)CC3)c3c(Cl)ccc(O)c32)n1 [Example 43, 1-(2-(4-Chloro-7-hydroxy-1′-neopentylspiro[indoline-3,4′-piperidine]-1-yl)phenyl)-3-(3-isopropyl-1,2,4-thiadiazol-5-yl)urea] | 4.4 nM | 0.3 µM |  |  | 
CC(C)N1CCC2(CC1)CN(c1ncccc1NC(=O)Nc1ccc(OC(F)(F)F)cc1)c1ccccc12 [Comparator 3, reference compound] | 5300 nM |  |  |  | 
Cc1ccc2nc(NC(=O)Nc3ccccc3N3CC4(CCN(CC(C)(C)C)CC4)c4c(F)ccc(O)c43)sc2c1 [Example 34, 1-(2-(7-Hydroxy-4-fluoro-1′-neopentylspiro[indoline-3,4′-piperidine]-1-yl)phenyl)-3-(6-methylbenzo[d]thiazol-2-yl)urea] | 3.7 nM | 0.5 µM |  |  | 
CC(C)c1nsc(NC(=O)Nc2ccccc2N2CC3(CCN(CC(C)(C)C)CC3)c3c(F)ccc(O)c32)n1 [Example 35, 1-(2-(4-Fluoro-7-hydroxy-1′-neopentylspiro[indoline-3,4′-piperidine]-1-yl)phenyl)-3-(3-isopropyl-1,2,4-thiadiazol-5-yl)urea] | 1.9 nM | 0.3 µM |  |  | 
Cc1nsc(NC(=O)Nc2ccccc2N2CC3(CCN(CC(C)(C)C)CC3)c3c(Cl)ccc(O)c32)n1 [Example 42, 1-(2-(4-Chloro-7-hydroxy-1′-neopentylspiro[indoline-3,4′-piperidine]-1-yl)phenyl)-3-(3-methyl-1,2,4-thiadiazol-5-yl)urea] | 3.3 nM | 0.3 µM |  |  | 
CC(C)(C)CN1CCC2(CC1)CN(c1ncccc1NC(=O)Nc1ccc(C(C)(C)C)cc1)c1c(O)ccc(C(F)(F)F)c12 [Example 13, 1-(4-tert-Butylphenyl)-3-(2-(7-hydroxy-1′-neopentyl-4-(trifluoromethyl)spiro[indoline-3,4′-piperidine]-1-yl)pyridin-3-yl)urea] | 3.3 nM | 0.5 µM |  |  | 
CC(C)N1CCC2(CC1)CN(c1ccccc1NC(=O)Nc1ccc(OC(F)(F)F)cc1)c1ccccc12 [Comparator 1, reference compound] | 300 nM | 29.2 µM |  |  | 
CC(C)(C)CN1CCC2(CC1)CN(c1ccccc1NC(=O)Nc1ccc(OC(F)(F)F)cc1)c1c(O)cccc12 [Example 1, 1-(2-(7-Hydroxy-1′-neopentylspiro[indoline-3,4′-piperidine]-1-yl)phenyl)-3-(4-(trifluoromethoxy)phenyl)urea] | 10.3 nM | 1.7 µM |  |  | 
CC(C)(C)CN1CCC2(CC1)CN(c1ccccc1NC(=O)Nc1nc3ccccc3s1)c1c(O)ccc(Cl)c12 [Example 53, 1-(Benzo[d]thiazol-2-yl)-3-(2-(4-chloro-7-hydroxy-1′-neopentylspiro[indoline-3,4′-piperidine]-1-yl)phenyl)urea, TFA] |  | 0.5 µM |  |  | 7.5 nM
